Measured values from patent US6455593B1, “Method of dynamic retardation of cell cycle kinetics to potentiate cell damage” (priority 1995, dated 2002).

Columns and labels:
Assay in all cases: Induction of apoptosis by DEET
Assay type in all cases: cell-based, human
U937 cells = tested on: U937 cells
Jurkat T cells = tested on: Jurkat T cells
Daudi B cells = tested on: Daudi B cells

Measured: Concentration inducing apoptosis

CCN(CC)C(=O)c1cccc(C)c1 [DEET, N,N-Diethyl-m-toluamide]
above 0.5 mM: all assays above
